{
  "source": "patent US8222242B2",
  "about": "“Nitric oxide releasing compounds” (The Regents of the University of California, priority 2008, dated 2012)",
  "key": {"D. melanogaster": {"tested_on": "D. melanogaster", "experiment": "Nitrite and nitrate in extracts of injected flies", "format": "in vivo, Drosophila melanogaster", "settings": "1 μl of 1 mM NO-Cbi injected", "method": "Nitrite and nitrate in extracts of NO-Cbi-injected flies were measured, and, as in the studies with CS-54 cells, a little over 50% of the injected NO as nitrite and nitrate was recovered (FIG. 3c). The nitrite/nitrate levels reached a maximum at 1 hour, and returned to that of water-injected flies at 4-5 hours (FIG. 3c). […] Nitrite and nitrate excretion likely explained the only partial recovery of NO."}, "mice [1]": {"tested_on": "mice", "format": "in vivo, mouse", "method": "Mice were anesthetized with 1.5% isoflurane gas, and after achieving a stable blood pressure and pulse (about 10 minutes), they were injected intraperitoneally with 100 μl of […] 8 mM Cbi(II) (open circles, solid line), 8 mM NO-Cbi (filled circles, dashed line), or 8 mM nitroglycerin (squares, dotted lines) (panels a and b). Control refers to anesthetized mice who received 100 μl water (triangles, solid line). In panel C, 100 μl of 6 mM NO-Cbi was injected at 0, 32, and 64 minutes as indicated by the arrows. Systolic and diastolic blood pressures, and pulse rate, were measured at the indicated times on the tail artery using a non-invasive tail cuff. The percent change in mean arterial pressure (A and C), and pulse rate (B and C) are shown. For panels A and B, data are the mean±SD of results from five mice for NO-Cbi studied on separate days, and four mice for the other conditions. […] Data in panel C are the mean±SD of results from three mice studied on different days.\nPulse, and systolic and diastolic blood pressures, were measured non-invasively in the tail artery of mice by restraining mice on a warming platform maintained at ˜38° C. The base of the tail was placed in a computer-controlled pneumatic cuff, and the distal tail was placed in a sensor assembly consisting of a light emitting diode and a photodiode detector. Baseline measurements were made with the mice awake in a dark chamber. The mice were then anesthetized with 3% isoflurane in an induction chamber, and returned to the platform where they received 1.5% isoflurane with 2 liter per minute of oxygen via a nose cone; the isoflurane caused a small, but stable, drop in blood pressure. Drugs in a volume of 100 ul were injected intraperitoneally into the mice, and pulse and blood pressure were measured every 5-15 minute, taking five readings at each time point.\nTo determine the effect of NO release from NO-Cbi in an intact mammal, blood pressure and pulse of mice injected intraperitoneally with NO-Cbi were measured."}, "isolated mouse hearts": {"tested_on": "isolated mouse hearts", "experiment": "Coronary flow in isolated perfused mouse hearts (Langendorff)", "method": "(§1) Hearts and aortas were removed from NIH Swiss mice anesthetized with sodium nembutal, and coronary flow was measured in the hearts using a Langendorff preparation (FIG. 5a) and relaxation of aortic rings was measured after inducing constriction of the rings with prostaglandin F2α (FIG. 5b). The hearts and aortic rings were treated with a range of concentrations of NO-Cbi (filled circles), nitroglycerin (open circles, dotted line, FIG. 5a), and sodium nitroprusside (open circles, FIG. 5b). Coronary flow was measured on the same hearts for both NO-Cbi and nitroglycerin after an appropriate wash-out period between drugs, and aortic ring relaxation was measured on two rings from the same aorta for NO-Cbi and sodium nitroprusside. The data are the mean of two independent experiments performed on two separate hearts in each experiment (FIG. 5a), and the mean±SEM of two independent experiments performed on three separate aortic rings in each experiment (FIG. 5b).\nCoronary flow was measured in isolated perfused mouse hearts in a Langendorff system, and was 10.8±0.5 ml/min/g wet weight (n=7 hearts) under basal conditions. […] The latter value is similar to maximal coronary flow of 24.6±1.8 ml/min/g wet weight obtained with 62 μM adenosine. For nitroglycerin to increase coronary flow to that of NO-Cbi, the nitroglycerin concentration had to be increased to 770 μM, or about 100-fold greater than the NO-Cbi concentration (FIG. 5a)."}, "mouse aortic rings": {"tested_on": "mouse aortic rings", "experiment": "Relaxation of mouse aortic rings constricted with prostaglandin F2α", "settings": "rings pretreated with 2 μM prostaglandin F2α; read-out: EC50, concentration that induced half-maximal relaxation", "method": "as §1\nRelaxation of aortic contraction was measured in 3 mm rings cut from thoracic aortas of mice; the rings were pretreated with 2 μM prostaglandin F2α to produce 0.5-1 g of active tension."}, "New Zealand white rabbit": {"tested_on": "New Zealand white rabbit", "experiment": "Oral (nasogastric) NO-Cbi and rabbit blood pressure", "format": "in vivo", "method": "An anesthetized New Zealand white rabbit was given NO-Cbi via a nasogastric tube at 10 and 100 (0.32 and 3.2 mg/kg) (FIG. 10a) or 10 and 50 (0.32 and 1.6 mg/kg) (FIG. 10b) times the dose used intravenously. Blood pressure was monitored continuously by an intra-arterial catheter, and was recorded every 5 minutes. The blood pressure was allowed to stabilize for 10 minutes prior to administering NO-Cbi."}, "[2]": {"tested_on": "CS-54 rat vascular smooth muscle cells", "protocol": "CS-54 rat vascular smooth muscle cells were treated with the indicated concentrations of NO-Cbi for 1 hour (A), or 10 μM NO-Cbi for the indicated times (B and C). […] (C) Cell extracts were clarified by centrifugation, and nitrite and nitrate in the extracts were measured by an enhanced Griess reagent method. In A and B, “Con” refers to control, which was cells treated with water. As indicated, the effects of 30 μM cobinamide (Cbi) and 100 μM 8-CPT-cGMP (cGMP) are shown for comparison. In A and B, similar results were obtained in two other experiments.\nNitrite and nitrate were measured in CS-54 cell extracts and fly extracts using a kit from Active Motif based on an enhanced Griess reagent, as described previously (Broderick K E et al. (2006) FASEB J. 20:1865-73)."}, "mice [3]": {"tested_on": "mice", "format": "in vivo, mouse", "settings": "0.6 nmol three times at 32 minute intervals"}},
  "data": [
    {"smiles": "CC1=C2[N+]3=C(C=C4[N+]5=C(C(C)=C6[N]7C(C(CC(N)=O)C6(C)CCC(=O)NCC(C)O)C6(C)[N+](=C1C(CCC(N)=O)C6(C)CC(N)=O)[Co-3]753[N]=O)C(CCC(N)=O)C4(C)C)C(CCC(N)=O)C2(C)CC(N)=O", "note": "(stereo not drawn) [NO-Cbi, nitrosyl cobinamide]", "values": [
      {"measurement": "injected NO recovered as nitrite and nitrate", "setting": "D. melanogaster", "result": "over 50%"},
      {"measurement": "time of maximum nitrite/nitrate levels", "setting": "D. melanogaster", "result": 1, "unit": "h"},
      {"measurement": "time of return of nitrite/nitrate levels to that of water-injected flies", "setting": "D. melanogaster", "result": "4 to 5", "unit": "h"},
      {"measurement": "systolic and diastolic blood pressure", "setting": "mice [1]; 0.8 μmol (100 μl of 8 mM) intraperitoneally, anesthetized mice", "result": "rapidly reduced"},
      {"measurement": "increase of pulse rate compared with nitroglycerin", "setting": "mice [1]; 0.8 μmol intraperitoneally", "result": "more pronounced than that observed with nitroglycerin"},
      {"measurement": "time required for blood pressure to return to control values", "setting": "mice [1]; 0.8 μmol intraperitoneally", "result": "~45", "unit": "min"},
      {"measurement": "blood pressure reduction compared with nitroglycerin", "setting": "mice [1]; equimolar amounts, intraperitoneally", "result": "reduced blood pressure more potently than an equimolar amount of nitroglycerin"},
      {"measurement": "half-life of NO-Cbi in the mice", "setting": "mice [1]; mouse, in vivo", "result": "30 to 60", "unit": "min"},
      {"measurement": "pulse rate above control values", "setting": "mice [1]; until 75 minutes", "result": "more than 10%"},
      {"measurement": "low concentration that significantly increased coronary flow", "setting": "isolated mouse hearts", "result": 20, "unit": "nM"},
      {"measurement": "coronary flow", "setting": "isolated mouse hearts; 7 μM infused", "result": "22.8±1.2", "unit": "ml/min/g wet weight"},
      {"measurement": "increase of coronary flow", "setting": "isolated mouse hearts; 7 μM infused", "result": "more than two-fold"},
      {"measurement": "EC50", "setting": "mouse aortic rings", "result": "195 ± 12", "unit": "nM"},
      {"measurement": "blood pressure on the higher dose", "setting": "New Zealand white rabbit; 3.2 or 1.6 mg/kg via nasogastric tube", "result": "steeper decrease"},
      {"measurement": "time until blood pressure began to decrease", "setting": "New Zealand white rabbit; low dose (0.32 mg/kg) via nasogastric tube", "result": "≤ 10", "unit": "min"},
      {"measurement": "blood pressure after 100 or 180 minutes", "setting": "New Zealand white rabbit; via nasogastric tube", "result": "remained lower than baseline"},
      {"measurement": "duration of effect after each dose", "setting": "New Zealand white rabbit; via nasogastric tube", "result": "at least 40 minutes"},
      {"measurement": "increased nitrite and nitrate as share of the NO added as NO-Cbi", "setting": "[2]; 10 μM NO-Cbi, CS-54 cells", "result": 55, "unit": "%"},
      {"measurement": "nitrite and nitrate in the culture medium", "setting": "[2]; 10 μM NO-Cbi, CS-54 cells", "result": "increased nitrite and nitrate"},
      {"measurement": "half-life of NO-Cbi estimated from nitrite and nitrate accumulation", "setting": "[2]; rat", "result": "30 min and 60 min"},
      {"measurement": "blood pressure and heart rate on repeated injections", "setting": "mice [3]", "result": "a decrease in blood pressure and increase in heart rate was observed with each injection"}
    ]}
  ]
}
